US11629192B2, “Methods and pharmaceutical compositions for the treatment of diseases mediated by the NRP-1/OBR complex signaling pathway” (INSERM (Institut National de la Sante et de la Recherche …, priority 2014, dated 2023)

Target: T1, OBR (Homo sapiens, UniProt P48357)
T1 sequence (P48357 22-1165): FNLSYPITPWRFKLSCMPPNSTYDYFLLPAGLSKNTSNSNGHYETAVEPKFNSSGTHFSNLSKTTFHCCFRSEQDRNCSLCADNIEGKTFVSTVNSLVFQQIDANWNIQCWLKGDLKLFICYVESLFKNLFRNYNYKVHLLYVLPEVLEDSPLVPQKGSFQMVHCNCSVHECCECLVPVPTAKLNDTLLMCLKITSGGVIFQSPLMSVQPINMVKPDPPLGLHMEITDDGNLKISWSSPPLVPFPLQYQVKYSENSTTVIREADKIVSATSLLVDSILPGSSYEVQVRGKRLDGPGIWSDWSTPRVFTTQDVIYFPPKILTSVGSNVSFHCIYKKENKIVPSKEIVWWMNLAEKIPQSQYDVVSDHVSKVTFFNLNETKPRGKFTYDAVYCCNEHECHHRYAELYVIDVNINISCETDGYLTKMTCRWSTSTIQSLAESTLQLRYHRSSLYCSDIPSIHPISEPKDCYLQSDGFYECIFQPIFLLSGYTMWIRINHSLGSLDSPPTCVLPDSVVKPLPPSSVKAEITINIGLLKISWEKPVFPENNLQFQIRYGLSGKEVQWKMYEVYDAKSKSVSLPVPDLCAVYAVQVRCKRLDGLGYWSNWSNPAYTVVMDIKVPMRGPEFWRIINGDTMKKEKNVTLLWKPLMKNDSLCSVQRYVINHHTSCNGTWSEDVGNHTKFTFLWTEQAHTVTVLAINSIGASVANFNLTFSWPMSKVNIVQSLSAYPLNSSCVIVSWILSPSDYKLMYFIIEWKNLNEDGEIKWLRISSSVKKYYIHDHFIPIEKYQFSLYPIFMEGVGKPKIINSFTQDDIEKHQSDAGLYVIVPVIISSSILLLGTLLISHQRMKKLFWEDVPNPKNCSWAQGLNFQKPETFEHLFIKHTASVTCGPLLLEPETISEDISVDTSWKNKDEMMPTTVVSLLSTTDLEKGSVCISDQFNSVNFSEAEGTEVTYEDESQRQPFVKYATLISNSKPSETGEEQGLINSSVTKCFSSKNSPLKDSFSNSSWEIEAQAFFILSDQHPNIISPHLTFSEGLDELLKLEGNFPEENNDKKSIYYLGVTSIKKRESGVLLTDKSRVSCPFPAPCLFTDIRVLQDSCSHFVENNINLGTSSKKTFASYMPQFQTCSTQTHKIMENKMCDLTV
Experiment: Bio-Layer Interferometry (BLI) binding to OBR
From the text: FIG. 5. NRP-1, OBR and leptin interactions confirmation using a Bio-Layer Interferometry (BLI) technology (fortebio.com/bli-technology.html): A-Leptin (OB) interaction to OBR is used as a positive control. Human neuropilin-1 (hNRP-1) interact with human OBR with a high affinity and specifically with human leptin (hOB) but not with murine leptin (mOB). VEGF165 binding to hNRP-1 is used as a positive control. B-Leptin and Avastin association increases MDA-MB231 cells transmigration through […] pore Insert. Avastin treatment may prevent a negative feedback control by VEGF of the pro-angiogenic signaling pathway of Leptin. VEGF binds to OBR which confirms our hypothesis that should be more investigated.

VEGF
binding to OBR: binds
